From patent publication US4618612A (Medosan Industrie Biochimiche Riunite S.p.A., priority 1983, dated 1986)

How the values were obtained:
gastric mucosa = assay: Gastric tolerance (ulcerogenic activity); type: in vivo, male Wistar rats; conditions: 4 days; for Mean Severity: scale 0-5
Procedure: This was studied by conducting tests of ulcerogenic activity in male Wistar rats, weighing 180 g on the average, in groups of 10 animals each. Three doses of each substance were given, and one group of animals was treated with vehicle only in a volume of 10 ml/kg bodyweight. Each dose was given orally for four consecutive days; on the fifth day, the rats were killed and autopsied. The ulcerogenic effect was assessed according to the following scale:
(1) each hemorrhage point ≥1 mm was evaluated as 1 lesion
(2) hemorrhage points smaller than 1 mm were counted as follows:
(b) from 1 to 19:2 lesions
(c) from 1 to 29:3 lesions
(2) gastric mucosa irritation: 1
(3) hemorrahge points <1 mm: 2
(4) hemorrhage points between 1 and 3 mm: 3
(5) hemorrhage points >3 mm: 4
This scale was used to calculate the following gastric damage index: [formula]

carragenin-induced edema = assay: Carragenin-induced edema test (Winter); type: in vivo, rat
Procedure: This effect was measured with an experimental model reproducing acute inflammation in rats: the carragenin-induced edema test according to C.

[1] = test system: rat platelet-rich plasma (ADP-induced platelet aggregation); assay: Anti-platelet aggregation activity in vitro (Born's method), rat platelet-rich plasma, ADP-induced; type: cell-based
Procedure: Preparations (A), (B), (C), (D), (E) and (F) were administered "in vivo" orally and/or parenterally in 0.5% carboxymethylcellulose suspensions in physiological saline at neutral pH. When tested "in vitro", they were finely dispersed in neutral pH physiological saline.
This was studied "in vitro" following Born's method (Born G. W. R., Nature, 194, 937 (1962)) and inducing platelet aggregation with ADP.
Platelet-rich plasma was obtained by centrifugation for 10 minutes at 2,000 rpm of 9 parts rat blood to 1 part 3.13% sodium citrate solution. In performing the aggregation test, 0.2 ml of platelet rich plasm was mixed with a 0.9% NaCl solution to which the test substance was added to a final volume of 0.6 ml; the resulting mixture was incubated at 27° C. for 3 minutes. After inducement with ADP, aggregation was measured continuously with an Elvi 840 Aggregometer (Elvi Logos-Milan) to follow its course. The anti-aggregant effects were determined from the difference in the light transmission of the sample with respect to an ADP control.
Table I reports the platelet aggregation inhibition using different doses of the test compounds at a constant ADP concentration.

[2] = test system: human platelet aggregation (PRP); assay: Human platelet aggregation in vitro induced by ADP, adrenalin, collagen or arachidonate; type: cell-based
Procedure: Blood samples (20 ml) were obtained by venal puncture of the antecubital fossa using plastic syringes containing trisodium citrate as anticoagulant (final concentration 0.19% w/v). Platelet rich plasma (PRP) was harvested after slow centrifugation at 170 g for 12 min. and 0.2 ml aliquots were dispensed into plastic cuvettes and stored at room temperature throughout the experiment.
Aliquots of 0.2 ml PRP from each sample were treated with ADP, adrenalin, collagen or arachidonate, until the threshold concentrations of these aggregating agents had been reached. The threshold concentration is defined as the minimum whcih will produce irreversible aggregation. Once established, the threshold concentration was used to challenge test samples of each of the 2 test compounds or vehicle (DMSO) which had been incubated for 1 min. at 37 C. in the holding cell of the agregometer, prior to addition of the aggregating agent.
This was reported as the final concentration in the PRP after addition of 2.5-10 ul of test substance.

in vivo [3] = conditions: rat, rats
in vivo [4] = conditions: mouse, mice
[5] = ADP 2 μmol/l, dose 1 V/ml (Table II)
[6] = ADP 5 μmol/l, dose 1 V/ml (Table II)

In the case of `Cc1ccc(C(=O)c2ccc(CC(=O)O)n2C)cc1` [Na Tolmetin 2H2 O, 1-methyl-5-p-methylbenzoylpyrrol-2-acetic acid, reference compound], the “% incidence 10” value (gastric mucosa; 50 mg/kg oral) is reported as 7 %/10, the “Mean No. lesions” value (gastric mucosa; 50 mg/kg oral) is reported as 2 and the “Mean Severity” value (gastric mucosa; 50 mg/kg oral) is reported as 2. The “% incidence 10” value (gastric mucosa; 100 mg/kg oral) was 10 %/10, the “Mean No. lesions” value (gastric mucosa; 100 mg/kg oral) was 2,5 and the “Mean Severity” value (gastric mucosa; 100 mg/kg oral) was 3,5. The “% incidence 10” value (gastric mucosa; 200 mg/kg oral) was 10 %/10, the “Mean No. lesions” value (gastric mucosa; 200 mg/kg oral) was 3 and the “Mean Severity” value (gastric mucosa; 200 mg/kg oral) was 4. The “% Edema Inhibition” value (carragenin-induced edema; I.P., 10 mg/kg, 3 h) was 32,0%, the “% Edema Inhibition” value (carragenin-induced edema; I.P., 10 mg/kg, 6 h) was 23,0% and the “% Edema Inhibition” value (carragenin-induced edema; I.P., 10 mg/kg, 24 h) was 0,0%. For the same molecule, the “% Edema Inhibition” value (carragenin-induced edema; I.P., 50 mg/kg, 3 h) was 48,6%, the “% Edema Inhibition” value (carragenin-induced edema; I.P., 50 mg/kg, 6 h) was 53,2% and the “% Edema Inhibition” value (carragenin-induced edema; I.P., 50 mg/kg, 24 h) was 0,0%. The “% Edema Inhibition” value (carragenin-induced edema; I.P., 100 mg/kg, 3 h) was 67,3%, the “% Edema Inhibition” value (carragenin-induced edema; I.P., 100 mg/kg, 6 h) was 55,1% and the “% Edema Inhibition” value (carragenin-induced edema; I.P., 100 mg/kg, 24 h) was 0,0%. For the same molecule, the “% Edema Inhibition” value (carragenin-induced edema; OS, 10 mg/kg, 3 h) was 30,5%, the “% Edema Inhibition” value (carragenin-induced edema; OS, 10 mg/kg, 6 h) was 24,0% and the “% Edema Inhibition” value (carragenin-induced edema; OS, 10 mg/kg, 24 h) was 0,0%. For the same molecule, the “% Edema Inhibition” value (carragenin-induced edema; OS, 50 mg/kg, 3 h) was 49,0%, the “% Edema Inhibition” value (carragenin-induced edema; OS, 50 mg/kg, 6 h) was 52,0% and the “% Edema Inhibition” value (carragenin-induced edema; OS, 50 mg/kg, 24 h) was 0,0%. The “% Edema Inhibition” value (carragenin-induced edema; OS, 100 mg/kg, 3 h) was 59,0%, the “% Edema Inhibition” value (carragenin-induced edema; OS, 100 mg/kg, 6 h) was 54,2% and the “% Edema Inhibition” value (carragenin-induced edema; OS, 100 mg/kg, 24 h) was 0,0%.

For “1-Methyl-5-p-methylbenzoylpyrrol-2-acetate of 7-(3-oxypropyl)theophylline [(C)]”, the “% Inhibition” value [1, 5] was 36%, the “% Inhibition” value [1, 6] was 27% and the “% Inhibition” value ([1]; ADP 7.08 μmol/l, dose 1 /ml (Table I)) was 22%. The “% Inhibition” value ([1]; ADP 7.08 μmol/l, dose 2,5 /ml (Table I)) was 75%, the “% Inhibition” value ([1]; ADP 7.08 μmol/l, dose 5 /ml (Table I)) was 90% and the “% Edema Inhibition” value (carragenin-induced edema; I.P., 10 mg/kg, 3 h) was 38,0%. The “% Edema Inhibition” value (carragenin-induced edema; I.P., 10 mg/kg, 6 h) was 36,2%, the “% Edema Inhibition” value (carragenin-induced edema; I.P., 10 mg/kg, 24 h) was 0,0% and the “% Edema Inhibition” value (carragenin-induced edema; I.P., 50 mg/kg, 3 h) was 53,1%. For the same molecule, the “% Edema Inhibition” value (carragenin-induced edema; I.P., 50 mg/kg, 6 h) was 50,0%, the “% Edema Inhibition” value (carragenin-induced edema; I.P., 50 mg/kg, 24 h) was 2,0% and the “% Edema Inhibition” value (carragenin-induced edema; I.P., 100 mg/kg, 3 h) was 69,5%. For the same molecule, the “% Edema Inhibition” value (carragenin-induced edema; I.P., 100 mg/kg, 6 h) was 62,0%, the “% Edema Inhibition” value (carragenin-induced edema; I.P., 100 mg/kg, 24 h) was 10,0% and the “% Edema Inhibition” value (carragenin-induced edema; OS, 10 mg/kg, 3 h) was 40,2%. The “% Edema Inhibition” value (carragenin-induced edema; OS, 10 mg/kg, 6 h) was 34,0%, the “% Edema Inhibition” value (carragenin-induced edema; OS, 10 mg/kg, 24 h) was 0,0% and the “% Edema Inhibition” value (carragenin-induced edema; OS, 50 mg/kg, 3 h) was 59,0%. For the same molecule, the “% Edema Inhibition” value (carragenin-induced edema; OS, 50 mg/kg, 6 h) was 57,0%, the “% Edema Inhibition” value (carragenin-induced edema; OS, 50 mg/kg, 24 h) was 22,2% and the “% Edema Inhibition” value (carragenin-induced edema; OS, 100 mg/kg, 3 h) was 70,0%. The “% Edema Inhibition” value (carragenin-induced edema; OS, 100 mg/kg, 6 h) was 66,1%, the “% Edema Inhibition” value (carragenin-induced edema; OS, 100 mg/kg, 24 h) was 31,0% and the “Minimum Effective Concentration (Final in PRP)” value (“Minimum Effective Concentration” for short) ([2]; ADP, volunteer 1 (person delta for (A), person for (C))) was 100 µM. For the same molecule, the “Minimum Effective Concentration” value ([2]; ADP, volunteer 2 (donor gamma)) was 100 µM, the “Minimum Effective Concentration” value ([2]; ADP, volunteer 3 (person alpha for (A), person for (C))) was 250 µM and the “Minimum Effective Concentration” value ([2]; Adrenalin, volunteer 1) was 100 µM. The “Minimum Effective Concentration” value ([2]; Adrenalin, volunteer 2 (donor gamma)) was 0.25 µM, the “Minimum Effective Concentration” value ([2]; Adrenalin, volunteer 3) was 100 µM and the “Minimum Effective Concentration” value ([2]; Arachidonate, volunteer 1) was 400 µM. The “Minimum Effective Concentration” value ([2]; Arachidonate, volunteer 2 (donor gamma)) was 10 µM, the “Minimum Effective Concentration” value ([2]; Arachidonate, volunteer 3) was 10 µM and the “Minimum Effective Concentration” value ([2]; Collagen, volunteer 1) was 350 µM. The “Minimum Effective Concentration” value ([2]; Collagen, volunteer 2 (donor gamma)) was 250 µM and the “Minimum Effective Concentration” value ([2]; Collagen, volunteer 3) was 100 µM.

In the case of `Cc1ccc(C(=O)c2ccc(CC(=O)OC(Cn3cnc4c3c(=O)n(C)c(=O)n4C)Cn3cnc4c3c(=O)n(C)c(=O)n4C)n2C)cc1` [(F)], the LD50 (in vivo [3]; ip, I.P.) is reported as 1050 mg/kg, the LD50 (in vivo [3]; po, OS) is reported as 1500 mg/kg and the “% Inhibition” value [1, 5] is reported as 32%. The “% Inhibition” value [1, 6] was 23%, the “% Edema Inhibition” value (carragenin-induced edema; I.P., 10 mg/kg, 3 h) was 43,8% and the “% Edema Inhibition” value (carragenin-induced edema; I.P., 10 mg/kg, 6 h) was 34,8%. The “% Edema Inhibition” value (carragenin-induced edema; I.P., 10 mg/kg, 24 h) was 0,0%, the “% Edema Inhibition” value (carragenin-induced edema; I.P., 50 mg/kg, 3 h) was 56,0% and the “% Edema Inhibition” value (carragenin-induced edema; I.P., 50 mg/kg, 6 h) was 33,0%. The “% Edema Inhibition” value (carragenin-induced edema; I.P., 50 mg/kg, 24 h) was 0,0%, the “% Edema Inhibition” value (carragenin-induced edema; I.P., 100 mg/kg, 3 h) was 78,6% and the “% Edema Inhibition” value (carragenin-induced edema; I.P., 100 mg/kg, 6 h) was 65,6%. For the same molecule, the “% Edema Inhibition” value (carragenin-induced edema; I.P., 100 mg/kg, 24 h) was 15,8%, the “% Edema Inhibition” value (carragenin-induced edema; OS, 10 mg/kg, 3 h) was 23,9% and the “% Edema Inhibition” value (carragenin-induced edema; OS, 10 mg/kg, 6 h) was 24,0%. The “% Edema Inhibition” value (carragenin-induced edema; OS, 10 mg/kg, 24 h) was 0,0%, the “% Edema Inhibition” value (carragenin-induced edema; OS, 50 mg/kg, 3 h) was 47,0% and the “% Edema Inhibition” value (carragenin-induced edema; OS, 50 mg/kg, 6 h) was 46,0%. For the same molecule, the “% Edema Inhibition” value (carragenin-induced edema; OS, 50 mg/kg, 24 h) was 0,0%, the “% Edema Inhibition” value (carragenin-induced edema; OS, 100 mg/kg, 3 h) was 66,0% and the “% Edema Inhibition” value (carragenin-induced edema; OS, 100 mg/kg, 6 h) was 66,0%. The “% Edema Inhibition” value (carragenin-induced edema; OS, 100 mg/kg, 24 h) was 12,0%, the LD50 (in vivo [4]; ip, I.P.) was 1240 mg/kg and the LD50 (in vivo [4]; po, OS) was 1680 mg/kg.
